Assay results taken from patent publication US8278298B2, “Inhibition of tau-tau-association” (Wista Laboratories Ltd., priority 1995, dated 2012).
Entries after “also recorded” stand apart in the source; their conditions may differ.

Legend:
[1] = systemic administration; cited from earlier work
[2] = test system: 3T3 cells; test: Toxicity of inhibitors in 3T3 cells; type: cell-based, mouse
Experimental: (§1) Mouse fibroblast 3T3 cells were transfected with a eukaryotic expression vector (pIF2) containing full-length and truncated forms of tau protein under constitutive control by a β-globin promotor. This vector contains a neomycin resistance gene as a selectable marker (pSV2neo; Sambrook et al. (1989), loc. cit.; modified by M. N. Neuberger). Cells were cultured in […] (DMEM) containing antimicrobial agents and 10% foetal calf serum at 37° C. in an atmosphere of 5% CO2. They were transfected with plasmid DNA either using a standard calcium phosphate protocol or by lipofection (according to manufacturers protocol; Gibco BRL). Cells which had integrated the plasmid DNA were selected by viability in medium containing Geneticin (0.5 mg/ml; Southern and Berg (1982), J. Mol. Appl. Genet. 1, 327).
The toxicity of the truncated core tau unit might be reversible in part if the prototype phenothiazine inhibitors could be used to block self-aggregation in vivo. This would be feasible only if the compounds were not intrinsically toxic at concentrations needed to block tau-tau binding. […] In practice, 3T3 cells could be grown several month in the presence of 2 μM thionine.

[3] = biological target: T1, tau-tau binding (truncated core tau unit of the PHF / full-length tau T40) (Homo sapiens, UniProt P10636); test: Tau-tau binding assay (truncated core tau unit in solid phase, tau in aqueous phase); details: for Ki: standard competitive inhibition model
T1 construct: the truncated core tau unit terminating at Ala-390 (“a”); made in house; host or cells: E. coli BL21 (DE3), plasmid pRK172
Text: Particularly preferred is the following configuration for tau-tau binding assays (FIG. 10): A tau fragment, preferably a recombinant tau fragment, corresponding to the truncated tau unit of the core PHF is bound to a solid phase, e.g. a conventional ELISA plate, in buffer conditions which have been shown not to favour tau-tau association. […] The solid phase is usually poly(vinyl-chloride), but may be other polymers such as cellulose, polyacrylamide, nylon, polystyrene or polypropylene. The solid supports may be in the form of tubes, beads, discs or micro plates, or any other surfaces suitable for conducting an assay, and which on passive binding of tau protein, exposes the high affinity tau capture site. Following binding, the solid phase-antibody complex is washed in preparation for the test sample.
Next, a truncated unit terminating at Glu-391 was incubated. Only the lafter could be detected as mAb 423 immunoreactivity. […] Therefore plating of the core tau unit for passive binding to solid phase matrix was carried out in this buffer. If desired, a depolymerised tubulin preparation or a preparation of microtubules in the same buffer can be plated for passive binding for determination of tau-tubulin binding. Suitable agents for blocking excess binding sites are milk extract, bovine serum albumin, gelatine, etc. […]
FIG. 8: Tau binding assay configuration in which binding of two truncated units is measured. […]
FIG. 10: Standard configuration for measurement of binding of full-length tau (“t”) to the truncated core tau unit previously bound passively to the solid phase (“a”). […] Binding is detected by an appropriate antibody, which recognises an epitope located near the N-terminus of full-length tau.
(§2) FIG. 20: Selective inhibition of tau-tau-binding by thionine. […] The Ki values were calculated using the Kd values obtained from the corresponding binding studies using full-length tau. […]
The assay is carried out in a 96-well PVC microtitre plate, with solutions added and readings taken with respect to individual wells: […]

[4] = test system: 3T3 fibroblast transfected with full-length tau protein; test: Cytoskeletal distribution of tau in 3T3 fibroblasts transfected with full-length tau; type: cell-based, mouse
Experimental: as §1
The influence of thionine on the tau-tubulin binding interaction was examined in vivo by culturing 3T3 fibroblast transfected with full-length tau protein in the presence of thionine at a range of concentrations.

[5] = biological target: tau-tubulin binding (depolymerised tubulin coated, tau incubated) (Homo sapiens, UniProt P10636); test: Tau-tubulin binding assay; details: read-out: Ki for inhibition of the tau-tubulin binding interaction in vitro
Experimental: A method of determining any possible interference, i.e. binding of tau or a derivative thereof to tubulin molecules, comprises contacting a depolymerised tubulin preparation, or preparation of taxol-stabilised microtubules with an agent suspected of being capable of modulating or inhibiting pathological tau-tau association and a tau compound mentioned in above step c) followed by detection of the tau-tubulin binding.
Next, a truncated unit terminating at Glu-391 was incubated. Only the lafter could be detected as mAb 423 immunoreactivity. […] Therefore plating of the core tau unit for passive binding to solid phase matrix was carried out in this buffer. If desired, a depolymerised tubulin preparation or a preparation of microtubules in the same buffer can be plated for passive binding for determination of tau-tubulin binding. Suitable agents for blocking excess binding sites are milk extract, bovine serum albumin, gelatine, etc. […] No binding of full-length tau was seen without prior plating of the core tau unit in the solid phase. When both species were present, binding was seen to depend on concentration of both species. […]
as §2

[6] = test system: PC-12 cells; test: pNFH aggregates and neurite incorporation in PC-12 cells; type: cell-based; details: for Frequency of cells with pNFH aggregates: after db-cAMP, with thionine
Experimental: (§3) Neuronal cell lines (N2A, NIE-115) were cultured in DMEM containing 2% or 10% foetal calf serum and 5% horse serum on tissue culture plates coated with collagen. These were all grown at 37° C. in an atmosphere containing 5% CO2. Initial immunohistochemical studies of neuronal cell lines prior to transfection led to the identification of cytoplasmic aggregates immunoreactive with mAb 423 forming in the cytoplasm of undifferentiated neuroblastoma cells (N2A cells) and in PC-12 cells after brief treatment with dibutyryl-cAMP (db-cAMP, known to differentiate neuroblastoma cells in tissue culture). […] In the course of differentiation, this endogenous mAb 423 immunoreactivity was seen to shift from the cytoplasm to neurites. Immunoprecipitation of mAb423 immunoreactivity from these cells led to the identification of a species with gel mobility of 230 kDa which was recognised by SMI-31. […] We refer to them as presumptive-NFH aggregates (pNFH).
PC-12 cells were transfected with the pIF2 vector containing either the PHF-core tau fragment truncated at Glu-391 or full-length tau protein. As with 3T3 fibroblasts, no viable cell lines transfected with truncated tau were produced unless cells were grown in thionine following transfection. Once stahilised, transfected cell lines were analysed in the presence or absence of db-cAMP and in the presence and absence of thionine. Two end-points were examined: formation of cytoplasmic pNPH aggregates, and distribution of pNFH immunoreactivity into neurites.

[7] = test system: 3T3 cells transfected with truncated tau; test: Viability of 3T3 cells transfected with truncated tau; type: cell-based, mouse; details: grown in higher concentrations of thionine
Experimental: as §1
The number of viable cell lines transfected with truncated tau increased when the cells were grown in the presence of higher concentrations of thionine.

[8] = test system: tau/MAP2 binding interaction (foetal MAP2C); test: Tau/MAP2 binding in the standard binding assay; details: truncated tau/MAP2C and MAP2C/full-length tau configurations
Text: One possible explanation for the lack of MAP2 in PHFs might be that MAP2 in PHFs might be MAP2 is unable to bind to the core tau unit of the PHF because of sequence differences in the repeat regions. This was examined experimentally using the standard binding assay in two configurations: truncated tau in the solid phase with foetal MAP2C in the aqueous phase, and MAP2C in the solid phase with full-length tau in the aqueous phase. […] Thus, aggregation in the tandem-repeat region is not selective for tau, and the inhibitory activity of phenothiazine inhibitors such as thionine is not dependent on sequences unique to tau. The reason why MAP2 is not found in PHFs is at present unknown, but factors may include the contribution of the large N-terminal domain found in the adult form of MAP2, compartment differences within the cell, or other differences in processing of the MAP2 molecules.

[9] = test system: 3T3 cells transfected with PIF2::T40; test: Lipofectin/tau protein transfer into 3T3 cells expressing full-length tau; type: cell-based, mouse; details: truncated tau transferred via lipofectin, all three concentrations of truncated tau; thionine 1 μM
Experimental: FIG. 30: Lipofectin/tau protein transfers into 3T3 cells transfected with PIF2::T40. Relative cell survival (normalised to cell counts after Lipofectin treatment without protein) is shown for approximately equimolar concentrations of full-length (T40, 220 nM) and truncated tau (dGAE, 300 nM), without (unshaded) or with shaded) thionine at 1 μM. Truncated tau is more toxic than full-length tau (p=0.02), despite the fact that at equimolar concentrations, the total protein load is 5× greater in the case of full-length tau.
FIGS. 31A and 31B: (FIG. 31A) Reversal of truncated tau toxicity: The toxicity of truncated tau transferred via lipofectin into 3T3 cells expressing full-length tau is concentration dependent. […] (FIG. 31B) Similar experiment in which full-length tau was transferred via lipofectin into 3T3 cells expressing full-length. Both toxicity and thionine effects were much less apparent.

[10] = test system: neuronal cell lines; test: Toxicity for neuronal cell lines; type: cell-based; details: concentrations up to 2 μM
[11] = test system: NIE-115 cells; test: pNFH aggregates and neurite incorporation in NIE-115 cells; type: cell-based
Experimental: as §3
Rather, pNFH immunoreactivity was normally incorporated into growing neurites during the course of differentiation, although an early perinuclear-arc stage was also seen. NIE cells were transfected as above with the pIF2 vector containing either full-length or truncated tau protein and grown in the presence of thionine. The effects of adding db-cAMP in the presence or absence of thionine were then examined.

T1 sequence (P10636 614-707 limits assumed): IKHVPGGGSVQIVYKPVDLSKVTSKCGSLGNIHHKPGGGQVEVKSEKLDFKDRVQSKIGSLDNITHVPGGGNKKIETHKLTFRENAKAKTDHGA
Sequence of tau-tubulin binding (depolymerised tubulin coated, tau incubated) (P10636 1-441 isoform P10636-8): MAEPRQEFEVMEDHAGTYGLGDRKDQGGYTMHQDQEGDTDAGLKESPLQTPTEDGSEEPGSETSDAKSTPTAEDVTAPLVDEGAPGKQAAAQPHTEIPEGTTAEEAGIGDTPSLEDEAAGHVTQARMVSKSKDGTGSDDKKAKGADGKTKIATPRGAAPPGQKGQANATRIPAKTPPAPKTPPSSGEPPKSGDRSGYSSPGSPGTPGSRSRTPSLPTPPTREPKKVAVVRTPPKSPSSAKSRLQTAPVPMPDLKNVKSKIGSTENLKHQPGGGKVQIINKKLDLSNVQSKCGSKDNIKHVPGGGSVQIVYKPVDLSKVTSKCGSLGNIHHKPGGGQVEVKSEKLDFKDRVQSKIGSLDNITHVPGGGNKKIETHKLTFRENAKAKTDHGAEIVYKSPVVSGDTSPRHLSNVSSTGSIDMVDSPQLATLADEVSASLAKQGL

CN(C)c1ccc2nc3ccc(=[N+](C)C)cc-3sc2c1 [methylene blue]
CNS penetration [1]: CNS penetration following systemic administration has been described

acriflavin [reference compound]
Toxicity in 3T3 cells / fibroblasts [2]: lowest toxicity | Ki [3]: 100 nM

thionine
Concentration causing disruption of normal cytoskeletal distribution of tau immunoreactivity [4]: 4 to 8 µM | Effect on cytoskeletal distribution of tau ([4]; concentration range 0.5-2 μM): no effect | Ki [5]: 8000 nM | pNFH-neurite index ([6]; PC-12 cells transfected with truncated tau, with thionine (0.04 without)): 0.49 | Frequency of cells with pNFH aggregates ([6]; all transfected cells (49% after withdrawal)): 27% | Frequency of cells with pNFH aggregates ([6]; cells transfected with full-length tau (32% after withdrawal)): 16% | Frequency of cells with pNFH aggregates ([6]; cells transfected with truncated tau (60% after withdrawal)): 36% | Inhibition of pNFH aggregates in the cytoplasm ([6]; untransfected PC-12 cells): Dose-dependent inhibition | Number of viable cell lines transfected with truncated tau [7]: increased | Effect on tau/MAP2 binding interaction [8]: blocked | Reversal of truncated tau toxicity [9]: significantly reversed toxicity | Toxicity in 3T3 cells / fibroblasts [2]: lowest toxicity; also recorded: does not appear to have substantial intrinsic toxicity | Concentration at which 3T3 cells could be grown several months ([2]; prolonged culture): 2000 nM | Ki [3]: 100 nM | Toxicity for neuronal cell lines [10]: not toxic | pNFH-neurite index ([11]; NIE-ND1, after db-cAMP, with thionine as printed (0.66 without)): 0.1 | Proportion of cells containing pNFH aggregates ([11]; NIE-ND6, transfected with truncated tau, with thionine (44% after withdrawal)): 14% | Incorporation of transgenic tau protein into the microtubular cytoskeleton ([11]; cells transfected with full-length tau): did not interfere | Proportion of cells containing pNFH aggregates ([11]; cells transfected with full-length tau, with thionine (16% after withdrawal)): 7%

POTr: fetal rat tau
Binding to the core tau unit ([3]; introduced in the aqueous phase): incapable of pathological binding
